According to US9409903B2, “Benzyl substituted triazine derivatives and their therapeutical applications” (NantBioScience, Inc., priority 2009, dated 2016):

Assays:
Assay type in all cases: biochemical
Aurora-A(h) = biological target: T1, Aurora-A(h) (Homo sapiens, UniProt O14965); assay: Aurora-A kinase inhibition assay (KinaseProfiler / Kinase Hotspot); conditions: compound at 1 μM
T1 construct: purchased Millipore (KinaseProfiler service); also Reaction Biology Corp. (Kinase Hotspot)
T1 sequence (O14965 1-403): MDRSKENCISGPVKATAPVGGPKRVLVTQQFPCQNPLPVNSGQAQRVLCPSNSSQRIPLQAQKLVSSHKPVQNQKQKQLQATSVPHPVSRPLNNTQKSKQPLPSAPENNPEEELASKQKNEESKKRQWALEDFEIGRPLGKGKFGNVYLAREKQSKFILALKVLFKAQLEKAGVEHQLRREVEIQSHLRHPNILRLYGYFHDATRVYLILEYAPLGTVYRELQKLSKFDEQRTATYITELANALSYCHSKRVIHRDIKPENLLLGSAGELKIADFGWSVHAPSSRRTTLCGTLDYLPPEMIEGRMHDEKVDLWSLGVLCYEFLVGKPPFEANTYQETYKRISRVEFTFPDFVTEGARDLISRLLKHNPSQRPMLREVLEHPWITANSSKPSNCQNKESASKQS
Description: (§1) This example illustrated c-Src kinase, Aurora-A kinase, Flt3 kinase, Ret kinase and TrkA Kinase Assays of selected Compounds from this invention (referred to Daniele Fancelli et al, J. Med. Chem., 2006, 49 (24), pp 7247-7251). The KinaseProfiler™ Service Assay Protocols (Millipore) were used to test the kinase inhibiting activity of novel compounds from this invention. To do this, the buffer composition was as: 20 mM MOPS, 1 mM EDTA, 0.01% Brij-35, 5% Glycerol, 0.1% β-mercaptoethanol, 1 mg/mL BSA. Test compounds were initially dissolved in DMSO at the desired concentration, then serially diluted to the kinase assay buffer. In a final reaction volume of 25 μL, Aurora-A(h) (5-10 mU) is incubated with 8 mM MOPS pH 7.0, 0.2 mM EDTA, 200 μM LRRASLG (Kemptide), 10 mM MgAcetate and [γ^33P-ATP]. The reaction was initiated by the addition of the MgATP mix. After incubation for 40 minute at room temperature, the reaction was stopped by addition of 5 μL of a 3% phosphoric acid solution. 10 μL of the reaction was then spotted onto a P30 filtermat and washed three times for 5 minutes in 50 mM phosphoric acid and once in methanol prior to drying and scintillation counting. Wells containing substrate but no kinase and wells containing a phosphopeptide control were used to set 0% and 100% phosphorylation value, receptively.
(§2) Also Kinase Hotspot^SM kinase assay was used to test the compounds for IC50 or % inhibitions (Reaction Biology Corp.). Inhibitor IC50 values were determined by titration of compound at the optimal kinase concentration (Kinase EC50).

Ret kinase = biological target: T2, Ret kinase (Homo sapiens, UniProt P07949); assay: Ret kinase inhibition assay (KinaseProfiler / Kinase Hotspot); conditions: compound at 1 μM
T2 construct: purchased Millipore (KinaseProfiler service); also Reaction Biology Corp. (Kinase Hotspot)
Description: as §1, §2

c-Src kinase = biological target: T3, c-Src kinase (Homo sapiens, UniProt P12931); assay: c-Src kinase inhibition assay (KinaseProfiler / Kinase Hotspot); conditions: compound at 1 μM; read-out: % Inhibition @1 μM cSrc
T3 construct: purchased Millipore (KinaseProfiler service); also Reaction Biology Corp. (Kinase Hotspot)
Description: as §1, §2

TrkA Kinase = biological target: T4, TrkA Kinase (Homo sapiens, UniProt P04629); assay: TrkA kinase inhibition assay (KinaseProfiler / Kinase Hotspot); conditions: compound at 1 μM
T4 construct: purchased Millipore (KinaseProfiler service); also Reaction Biology Corp. (Kinase Hotspot)
Description: as §1, §2

Flt3 kinase = biological target: T5, Flt3 kinase (Homo sapiens, UniProt P36888); assay: Flt3 kinase inhibition assay (KinaseProfiler / Kinase Hotspot); conditions: compound at 1 μM
T5 construct: purchased Millipore (KinaseProfiler service); also Reaction Biology Corp. (Kinase Hotspot)
T5 sequence (P36888 27-993): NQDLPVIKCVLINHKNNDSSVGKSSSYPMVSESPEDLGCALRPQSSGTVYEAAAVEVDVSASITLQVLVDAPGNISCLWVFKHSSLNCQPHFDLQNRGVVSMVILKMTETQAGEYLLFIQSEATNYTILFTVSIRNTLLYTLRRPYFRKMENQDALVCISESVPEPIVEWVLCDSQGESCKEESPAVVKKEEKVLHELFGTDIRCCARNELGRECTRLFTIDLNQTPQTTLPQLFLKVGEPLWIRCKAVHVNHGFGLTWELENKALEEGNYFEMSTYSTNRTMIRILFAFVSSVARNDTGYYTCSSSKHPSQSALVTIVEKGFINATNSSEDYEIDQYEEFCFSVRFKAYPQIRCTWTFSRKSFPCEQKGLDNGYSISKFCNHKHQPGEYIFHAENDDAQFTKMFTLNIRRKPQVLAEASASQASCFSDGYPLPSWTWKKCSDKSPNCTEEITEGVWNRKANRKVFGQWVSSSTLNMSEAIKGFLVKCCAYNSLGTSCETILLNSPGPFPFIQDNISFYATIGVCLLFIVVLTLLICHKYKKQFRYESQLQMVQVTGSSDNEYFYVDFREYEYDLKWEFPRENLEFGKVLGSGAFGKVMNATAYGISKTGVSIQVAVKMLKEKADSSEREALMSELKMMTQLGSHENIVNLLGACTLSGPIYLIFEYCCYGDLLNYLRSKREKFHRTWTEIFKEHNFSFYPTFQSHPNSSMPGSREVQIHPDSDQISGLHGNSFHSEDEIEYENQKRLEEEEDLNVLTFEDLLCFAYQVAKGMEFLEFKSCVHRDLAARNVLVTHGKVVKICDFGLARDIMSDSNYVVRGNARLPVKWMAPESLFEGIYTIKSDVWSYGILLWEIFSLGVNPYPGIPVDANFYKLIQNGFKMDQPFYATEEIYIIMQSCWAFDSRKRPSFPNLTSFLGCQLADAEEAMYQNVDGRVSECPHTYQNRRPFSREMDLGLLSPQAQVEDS
Description: as §1, §2

T2 sequence (P07949 29-1114): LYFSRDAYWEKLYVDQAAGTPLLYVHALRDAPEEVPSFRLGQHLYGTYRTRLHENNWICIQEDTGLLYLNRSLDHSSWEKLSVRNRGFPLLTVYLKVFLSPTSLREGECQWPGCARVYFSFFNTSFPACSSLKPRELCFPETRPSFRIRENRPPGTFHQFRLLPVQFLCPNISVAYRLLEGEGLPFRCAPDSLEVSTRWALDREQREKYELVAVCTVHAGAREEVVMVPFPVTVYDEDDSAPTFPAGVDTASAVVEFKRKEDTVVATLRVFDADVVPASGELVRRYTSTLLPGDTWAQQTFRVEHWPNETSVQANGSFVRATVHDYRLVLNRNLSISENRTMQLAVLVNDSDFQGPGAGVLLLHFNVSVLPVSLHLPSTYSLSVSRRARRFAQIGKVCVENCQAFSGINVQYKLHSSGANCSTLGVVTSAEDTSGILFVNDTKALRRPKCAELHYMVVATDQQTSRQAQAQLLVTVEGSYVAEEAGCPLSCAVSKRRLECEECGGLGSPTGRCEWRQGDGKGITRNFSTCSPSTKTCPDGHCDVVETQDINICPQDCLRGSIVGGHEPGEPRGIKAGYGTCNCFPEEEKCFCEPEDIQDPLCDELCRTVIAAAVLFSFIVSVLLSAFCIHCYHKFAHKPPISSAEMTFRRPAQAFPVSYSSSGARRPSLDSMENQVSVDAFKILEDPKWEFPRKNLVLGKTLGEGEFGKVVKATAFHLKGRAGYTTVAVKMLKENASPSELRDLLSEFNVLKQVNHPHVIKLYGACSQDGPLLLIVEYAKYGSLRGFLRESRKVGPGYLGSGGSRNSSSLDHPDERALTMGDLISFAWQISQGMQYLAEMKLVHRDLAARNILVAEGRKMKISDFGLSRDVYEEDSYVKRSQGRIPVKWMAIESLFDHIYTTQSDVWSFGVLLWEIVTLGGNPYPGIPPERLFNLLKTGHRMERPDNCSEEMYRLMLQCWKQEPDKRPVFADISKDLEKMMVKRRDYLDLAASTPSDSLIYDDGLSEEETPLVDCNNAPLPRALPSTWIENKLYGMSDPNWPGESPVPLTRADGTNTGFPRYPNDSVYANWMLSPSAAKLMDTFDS
T4 sequence (P04629 33-796): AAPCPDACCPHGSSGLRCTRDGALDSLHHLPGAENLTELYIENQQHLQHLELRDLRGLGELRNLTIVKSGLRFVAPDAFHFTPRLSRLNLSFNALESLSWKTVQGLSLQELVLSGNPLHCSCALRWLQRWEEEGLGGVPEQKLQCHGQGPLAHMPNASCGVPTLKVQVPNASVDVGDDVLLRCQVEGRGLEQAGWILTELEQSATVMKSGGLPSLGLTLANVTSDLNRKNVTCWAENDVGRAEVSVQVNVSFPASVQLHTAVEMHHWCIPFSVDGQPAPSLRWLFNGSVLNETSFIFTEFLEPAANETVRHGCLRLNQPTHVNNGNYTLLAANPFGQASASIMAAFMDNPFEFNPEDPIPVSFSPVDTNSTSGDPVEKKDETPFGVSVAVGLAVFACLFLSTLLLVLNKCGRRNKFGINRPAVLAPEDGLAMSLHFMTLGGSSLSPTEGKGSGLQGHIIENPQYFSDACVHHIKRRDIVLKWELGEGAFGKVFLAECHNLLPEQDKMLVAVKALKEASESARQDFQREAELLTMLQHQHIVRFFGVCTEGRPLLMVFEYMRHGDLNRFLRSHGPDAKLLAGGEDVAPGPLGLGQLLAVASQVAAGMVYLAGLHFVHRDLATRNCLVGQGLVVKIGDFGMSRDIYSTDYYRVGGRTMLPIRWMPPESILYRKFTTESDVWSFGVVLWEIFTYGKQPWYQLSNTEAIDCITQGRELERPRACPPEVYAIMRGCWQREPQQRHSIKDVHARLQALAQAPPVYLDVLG
T3 sequence (P12931 whole entry): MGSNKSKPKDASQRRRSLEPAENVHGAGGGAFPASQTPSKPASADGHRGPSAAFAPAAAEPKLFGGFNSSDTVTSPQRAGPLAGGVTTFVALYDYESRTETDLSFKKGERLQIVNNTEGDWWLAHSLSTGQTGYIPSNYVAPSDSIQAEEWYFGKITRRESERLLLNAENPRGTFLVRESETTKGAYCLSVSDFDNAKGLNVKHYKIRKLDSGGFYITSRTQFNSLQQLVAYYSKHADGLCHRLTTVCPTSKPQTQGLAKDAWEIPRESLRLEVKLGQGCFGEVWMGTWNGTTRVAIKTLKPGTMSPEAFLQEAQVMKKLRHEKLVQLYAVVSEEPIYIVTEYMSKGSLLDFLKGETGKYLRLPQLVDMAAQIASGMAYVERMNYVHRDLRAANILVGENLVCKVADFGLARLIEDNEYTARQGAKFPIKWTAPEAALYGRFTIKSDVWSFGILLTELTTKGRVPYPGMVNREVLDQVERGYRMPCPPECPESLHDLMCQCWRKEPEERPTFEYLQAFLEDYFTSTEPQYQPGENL

Row | Structure (SMILES) | inhibition at 1 µM (Aurora-A(h)) | inhibition at 1 µM (Ret kinase) | inhibition at 1 µM (c-Src kinase) | inhibition at 1 µM (TrkA Kinase) | inhibition at 1 µM (Flt3 kinase) | % Inhibition @1 μM Ret (Ret kinase) | % Inhibition @1 μM TrkA (TrkA Kinase) | % Inhibition @1 μM Flt3 (Flt3 kinase)
1 | CN1CCN(c2nc(NCc3ccccc3)nc(Nc3cc(-c4ccco4)[nH]n3)n2)CC1 [Example 12] | < 50% | < 50% | 50 to 90% | > 90% | > 90% | – | – | –
2 | CN1CCN(c2nc(Nc3cc(-c4ccco4)[nH]n3)nc(OCc3ccccc3)n2)CC1 [Example 14] | < 50% | < 50% | < 50% | > 90% | > 90% | – | – | –
3 | CN1CCN(c2nc(Nc3cc(-c4ccco4)[nH]n3)nc(SCc3ccccc3)n2)CC1 [Example 15] | < 50% | < 50% | < 50% | > 90% | > 90% | – | – | –
4 | C[C@@H](Nc1nc(Nc2cc(-c3ccco3)[nH]n2)nc(N2CCN(C)CC2)n1)c1ccc(F)cc1 [Example 18] | < 50% | > 90% | > 90% | > 90% | > 90% | – | – | –
5 | CN1CCN(c2nc(NCc3ccccc3)nc(Nc3ncc(-c4ccccc4)s3)n2)CC1 [Example 19] | < 50% | < 50% | < 50% | < 50% | < 50% | – | – | –
6 | CC(Nc1nc(Nc2cc(C3CC3)[nH]n2)nc(N2CCN(C)CC2)n1)c1ccc(F)cc1 (stereo not shown) [Example 20] | 50 to 90% | < 50% | 50 to 90% | 50 to 90% | 50 to 90% | – | – | –
7 | C[C@H](Nc1nc(Nc2cc(-c3ccco3)[nH]n2)nc(N2CCN(C)CC2)n1)c1ccc(F)cc1 [Example 21] | < 50% | > 90% | < 50% | > 90% | > 90% | – | – | –
8 | C[C@@H](Nc1nc(Nc2cc(-c3ccco3)[nH]n2)nc(N2CCN(C)CC2)n1)c1ccc(F)cc1 [Example 22] | – | – | – | – | – | >90% | >90% | >90%
9 | CN1CCN(c2nc(Nc3cc(-c4ccco4)[nH]n3)nc(NC(C)(C)c3ccccc3)n2)CC1 [Example 23] | < 50% | > 90% | < 50% | > 90% | > 90% | – | – | –
